Target: T1, rabbit reticulocyte 15-LO (Oryctolagus cuniculus, UniProt P12530)
T1 construct: Fifteen-lipoxygenase was obtained from phenylhydrazine-treated rabbits and purified per the method of Rapoport; from tissue; host or cells: reticulocytes of phenylhydrazine-treated rabbits
T1 sequence (P12530 1-663): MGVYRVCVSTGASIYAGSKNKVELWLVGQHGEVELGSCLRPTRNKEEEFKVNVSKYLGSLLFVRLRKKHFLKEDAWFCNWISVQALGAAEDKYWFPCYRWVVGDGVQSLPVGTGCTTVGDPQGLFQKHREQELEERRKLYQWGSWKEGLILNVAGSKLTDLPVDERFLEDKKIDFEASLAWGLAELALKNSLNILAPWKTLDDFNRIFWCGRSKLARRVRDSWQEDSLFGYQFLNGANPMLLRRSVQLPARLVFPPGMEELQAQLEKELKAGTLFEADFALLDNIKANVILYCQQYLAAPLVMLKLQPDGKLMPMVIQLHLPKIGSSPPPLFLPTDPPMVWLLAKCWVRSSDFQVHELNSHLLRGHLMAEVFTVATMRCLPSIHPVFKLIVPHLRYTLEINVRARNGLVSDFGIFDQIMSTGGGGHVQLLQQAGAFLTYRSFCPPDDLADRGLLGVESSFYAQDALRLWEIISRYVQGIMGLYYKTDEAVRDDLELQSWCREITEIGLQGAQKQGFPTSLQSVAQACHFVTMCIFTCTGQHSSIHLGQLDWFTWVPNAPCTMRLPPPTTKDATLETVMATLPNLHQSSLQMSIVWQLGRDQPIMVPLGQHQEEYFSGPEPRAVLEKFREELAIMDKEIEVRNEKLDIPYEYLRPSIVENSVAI
Test: Rabbit Reticulocyte 15-LO Assay (h15LO)
Assay type: biochemical
Conditions: Table 2; for h15LO, value given as bare %: concentration not given; for IC50: 2U rabbit reticulocyte 15-LO, 174 μM linoleic acid, 15 minutes at 4° C.
Protocol: Rabbit Reticulocyte 15-LO Assay (h15LO)
The present 15-LO assay takes advantage of the ability of 15-LO to oxidize the fatty acid linoleic acid to the hydroperoxy fatty acid 13-(S)HPODE, resulting in the formation of a conjugated diene. The 15-LO inhibitors are incubated with 15-LO enzyme in the presence of linoleic acid substrate. The initial reaction is compared to an uninhibited (maximal) reaction to yield % inhibition. […] This prevents artificial nonenzyme lipid peroxidation and product breakdown in the sample. 13-HPODE is quantitated by comparing peak areas of individual samples with those from a standard curve generated using authentic 13-HODE. This assay is performed using 2U of rabbit reticulocyte 15-LO in the presence of 174 μM linoleic acid. The reaction is incubated for 15 minutes at 4° C. The total reaction volume is 100 μL in PBS containing 0.2% Na cholate.
Fifteen-lipoxygenase was obtained from phenylhydrazine-treated rabbits and purified per the method of Rapoport (Rapoport S. M., Schewe T., Wiesner R., et al. The lipoxygenase of reticulocytes. Purification, characterization, and biological dynamics of the lipoxygenase; its identity with the respiratory inhibitors of the reticulocyte. European Journal of Biochemistry, 1979;96:545-561). The following chemicals were purchased and used as received: linoleic acid (NUJCheck Prep), 13-HPODE (Biomol Research Labs), sodium cholate (Sigma), trimethyl phosphite (Fluka Chemicals).

| h15LO, value given as bare % [%] | IC50 [nM] | Structure (SMILES) |
| --- | --- | --- |
| 60 |  | COc1ccccc1CNc1cc(C(=O)Nc2ccccc2)ccc1OC [Example 238, 4-Methoxy-3-(2-methoxy-benzylamino)-N-phenyl-benzamide] |
|  | 22 | COC(=O)c1cccc(NC(=S)Nc2cc(C(=O)Nc3ccccc3)ccc2OC)c1 [Example 161, 3-[3-(2-Methoxy-5-phenylcarbamoyl-phenyl)-thioureido]-benzoic Acid Methyl Ester] |
| 55 |  | COc1ccc(NC(=O)Nc2ccc(Cl)c(Cl)c2)cc1NC(=S)Nc1cccc(C(=O)O)c1 [Example 173, 3-(3-{5-[3-(3,4-Dichloro-phenyl}-ureido]-2-methoxy-phenyl)-thioureido)-benzoic Acid] |
| 99.71 |  | COc1ccc(C(=O)Nc2ccc(F)c(F)c2)cc1NS(=O)(=O)c1cccc(N)c1 [Example 185, 3-(3-Amino-benzenesulfonylamino)-4-methoxy-N-(3,4-difluoro-phenyl)-benzamide] |
|  | 118 | COc1ccc(CNc2cc(C(=O)Nc3ccccc3)ccc2OC)cc1 [Example 216, 4-Methoxy-3-(4-methoxy-benzylamino)-N-phenyl-benzamide] |
| 89.54 |  | COc1ccc(NC(=O)c2ccc(F)c(F)c2)cc1NS(=O)(=O)c1ccc(C#N)cc1 [Example 204, 3,4-Difluoro-N-[3-(4-cyano-benzenesulfonylamino)-4-methoxy-phenyl]-benzamide] |
|  | 180 | O=C(Nc1ccccc1)c1ccc(O)c(Nc2ccccc2)c1 [Example 145, 4-Hydroxy-3-phenylamino-N-phenyl-benzamide] |
| 98.11 |  | COc1ccc(C(=O)Nc2ccc(F)cc2)cc1NC(=S)Nc1ccc(C(=O)O)cc1 [Example 166, 4-{3-[5-(4-Fluoro-phenylcarbamoyl)-2-methoxy-phenyl]-thioureido}-benzoic Acid] |
|  | 161 | COc1ccc(C(=O)Nc2ccccc2)cc1NCc1cc(C)cc(C)c1 [Example 218, 4-Methoxy-3-(3,5-dimethyl-benzylamino)-N-phenyl-benzamide] |
| 96.92 |  | CCCCCCCCCCCCS(=O)(=O)Nc1cc(NC(=O)c2ccc(F)c(F)c2)ccc1OC [Example 200, 3,4-Difluoro-N-[4-methoxy-3-(1-dodecane-sulfonylamino)-phenyl]-benzamide] |
|  | 551 | COC(=O)c1ccc(CNc2cc(C(=O)Nc3ccccc3)ccc2OC)cc1 [Example 221, 4-[(2-Methoxy-5-phenylcarbamoyl-phenylamino)-methyl]-benzoic Acid Methyl Ester] |
| 97.24 |  | COc1ccc(C(=O)Nc2ccccc2)cc1NS(=O)(=O)c1ccc([N+](=O)[O-])cc1 [Example 188, 4-Methoxy-3-(4-nitro-benzenesulfonylamino)-N-phenyl-benzamide] |
| 98.57 |  | COc1ccc(C(=O)Nc2ccc(Cl)c(Cl)c2)cc1NCc1cccs1 [Example 261, 4-Methoxy-3-[(thiophen-2-ylmethyl)-amino]-N-(3,4-dichloro-phenyl)-benzamide] |
|  | 1600 | O=C(Nc1ccccc1)c1cccc(Nc2cc(Cl)cc(Cl)c2)c1 [Example 26, 3-(3,5-Dichloro-phenylamino)-N-phenyl-benzamide] |
| 56.33 |  | COc1ccc(C(=O)Nc2ccccc2)cc1NCc1cccc(C(=O)O)c1 [Example 241, 3-[(2-Methoxy-5-phenylcarbamoyl-phenylamino)-methyl]-benzoic Acid] |
|  | 58 | COc1ccc(C(=O)Nc2ccccc2)cc1CNS(=O)(=O)c1cc(Cl)cc(Cl)c1 [Example 249, 3-[(3,5-Dichloro-benzenesulfonylamino)-methyl]-4-methoxy-N-phenyl-benzamide] |
|  | 613 | CCOC(=O)c1cccc(NC(=O)c2ccc(OC)c(N)c2)c1 [Example 148, 3-(3-Amino-4-methoxy-benzoylamino)-benzoic Acid Ethyl Ester] |
|  | 36 | COc1ccc(NC(=O)c2ccc(Cl)c(Cl)c2)cc1NS(=O)(=O)c1ccc(C)cc1 [Example 197, 3,4-Dichloro-N-[4-methoxy-3-(toluene-4-sulfonylamino)-phenyl]-benzamide] |
